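96-well plates; 48 h exposure; 5 concentrations. Endpoints by linear interpolation between flanking doses. Not reached: highest tested concentration assigned. Abbreviation: GI50, concentration required for 50% inhibition of growth. The concentration for full growth arrest is given as TGI.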
Key:
Experiment in all cases: NCI tumour cell line growth inhibition, 48 h
K-562 leukemia = test system: K-562 leukemia
COLO 205 colon = test system: COLO 205 colon
SK-MEL-2 melanoma = test system: SK-MEL-2 melanoma
SNB-19 CNS = test system: SNB-19 CNS
M14 melanoma = test system: M14 melanoma
KM12 colon = test system: KM12 colon
EKVX NSCLC = test system: EKVX NSCLC
HCT-15 colon = test system: HCT-15 colon
UO-31 renal = test system: UO-31 renal
HOP-62 NSCLC = test system: HOP-62 NSCLC
MALME-3M melanoma = test system: MALME-3M melanoma
LOX IMVI melanoma = test system: LOX IMVI melanoma
HCC-2998 colon = test system: HCC-2998 colon
SR leukemia = test system: SR leukemia
HL-60(TB) leukemia = test system: HL-60(TB) leukemia
OVCAR-8 ovarian = test system: OVCAR-8 ovarian
UACC-257 melanoma = test system: UACC-257 melanoma
NCI-H522 lung = test system: NCI-H522 lung
TK-10 renal = test system: TK-10 renal
SK-OV-3 ovarian = test system: SK-OV-3 ovarian
SW-620 colon = test system: SW-620 colon
DU-145 prostate = test system: DU-145 prostate
HCT-116 colon = test system: HCT-116 colon
OVCAR-3 ovarian = test system: OVCAR-3 ovarian
NCI/ADR-RES ovarian = test system: NCI/ADR-RES ovarian
CAKI-1 renal = test system: CAKI-1 renal
RPMI-8226 leukemia = test system: RPMI-8226 leukemia
MDA-MB-435 = test system: MDA-MB-435
SF-295 CNS = test system: SF-295 CNS
CCRF-CEM leukemia = test system: CCRF-CEM leukemia
PC-3 prostate = test system: PC-3 prostate
U251 CNS = test system: U251 CNS
T-47D breast = test system: T-47D breast
IGROV1 ovarian = test system: IGROV1 ovarian
A549 NSCLC = test system: A549 NSCLC
SK-MEL-28 melanoma = test system: SK-MEL-28 melanoma
ACHN renal = test system: ACHN renal
NCI-H460 lung = test system: NCI-H460 lung
HS 578T breast = test system: HS 578T breast
RXF 393 renal = test system: RXF 393 renal
BT-549 breast = test system: BT-549 breast
UACC-62 melanoma = test system: UACC-62 melanoma
NCI-H226 lung = test system: NCI-H226 lung
SF-539 CNS = test system: SF-539 CNS
786-0 renal = test system: 786-0 renal
MCF7 breast = test system: MCF7 breast
SN12C renal = test system: SN12C renal
SK-MEL-5 melanoma = test system: SK-MEL-5 melanoma
MDA-MB-231 breast = test system: MDA-MB-231 breast
NCI-H23 lung = test system: NCI-H23 lung
A498 renal = test system: A498 renal
HT29 colon = test system: HT29 colon
SF-268 CNS = test system: SF-268 CNS
OVCAR-5 ovarian = test system: OVCAR-5 ovarian
HOP-92 NSCLC = test system: HOP-92 NSCLC
SNB-75 CNS = test system: SNB-75 CNS
OVCAR-4 ovarian = test system: OVCAR-4 ovarian

## c1ccc(C(C(=Nc2ccc(Cc3ccc(N=C(C(c4ccccc4)c4ccccc4)N4CC4)cc3)cc2)N2CC2)c2ccccc2)cc1
K-562 leukemia
  TGI: 17.6 µM
COLO 205 colon
  TGI: 16.7 µM
SK-MEL-2 melanoma
  TGI: 24.6 µM
SNB-19 CNS
  TGI: 27.7 µM
M14 melanoma
  TGI: 70 µM
KM12 colon
  TGI: 24.5 µM
EKVX NSCLC
  TGI: 25.9 µM
HCT-15 colon
  TGI: 21.7 µM
UO-31 renal
  TGI: 14.8 µM
HOP-62 NSCLC
  TGI: 33 µM
MALME-3M melanoma
  TGI: 38.8 µM
LOX IMVI melanoma
  TGI: 18.9 µM
HCC-2998 colon
  TGI: 23.6 µM
SR leukemia
  TGI: 15.7 µM
HL-60(TB) leukemia
  TGI: 18.4 µM
OVCAR-8 ovarian
  TGI: 22.5 µM
UACC-257 melanoma
  TGI: 25.6 µM
NCI-H522 lung
  TGI: 19.8 µM
TK-10 renal
  TGI: 34.5 µM
SK-OV-3 ovarian
  TGI: 11.1 µM
SW-620 colon
  TGI: 20.1 µM
DU-145 prostate
  TGI: 28 µM
HCT-116 colon
  TGI: > 100 µM
OVCAR-3 ovarian
  TGI: 24.6 µM
NCI/ADR-RES ovarian
  TGI: 24.2 µM
CAKI-1 renal
  TGI: 24.1 µM
RPMI-8226 leukemia
  TGI: 39.5 µM
MDA-MB-435
  TGI: 21.1 µM
SF-295 CNS
  TGI: 27.5 µM
CCRF-CEM leukemia
  TGI: 49.8 µM
PC-3 prostate
  TGI: 22.6 µM
U251 CNS
  TGI: 30.9 µM
T-47D breast
  TGI: 16.5 µM
IGROV1 ovarian
  TGI: 2.41 µM
A549 NSCLC
  TGI: 22.3 µM
SK-MEL-28 melanoma
  TGI: 21.4 µM
ACHN renal
  TGI: 21.3 µM
NCI-H460 lung
  TGI: 13.4 µM
HS 578T breast
  TGI: 35.7 µM
RXF 393 renal
  TGI: 16.1 µM
BT-549 breast
  TGI: 24.7 µM
UACC-62 melanoma
  TGI: 21.7 µM
NCI-H226 lung
  TGI: 38.3 µM
SF-539 CNS
  TGI: 37.8 µM
786-0 renal
  TGI: 65.5 µM
MCF7 breast
  TGI: 15.4 µM
SN12C renal
  TGI: 32.3 µM
SK-MEL-5 melanoma
  TGI: 20.1 µM
MDA-MB-231 breast
  TGI: 29.2 µM
NCI-H23 lung
  TGI: 30.8 µM
A498 renal
  TGI: 29.1 µM
HT29 colon
  TGI: 15.9 µM
SF-268 CNS
  TGI: 21.8 µM
OVCAR-5 ovarian
  TGI: 24.5 µM

## COc1cccc2c1O/C(=C\c1ccc([N+](=O)[O-])s1)C2=O
K-562 leukemia
  GI50: 0.349 µM
  TGI: 3.05 µM
COLO 205 colon
  GI50: 5.15 µM
  TGI: > 100 µM
SK-MEL-2 melanoma
  GI50: 1.76 µM
  TGI: 3.92 µM
SNB-19 CNS
  GI50: 4.21 µM
  TGI: > 100 µM
M14 melanoma
  GI50: 3.06 µM
  TGI: > 100 µM
HCT-15 colon
  GI50: 0.474 µM
  TGI: 2.34 µM
UO-31 renal
  GI50: 1.08 µM
  TGI: 3.9 µM
HOP-92 NSCLC
  GI50: 1.18 µM
  TGI: 3.42 µM
HOP-62 NSCLC
  TGI: > 100 µM
LOX IMVI melanoma
  GI50: 3.15 µM
  TGI: > 100 µM
HCC-2998 colon
  GI50: 4 µM
  TGI: > 100 µM
SR leukemia
  GI50: 0.279 µM
  TGI: 2.93 µM
HL-60(TB) leukemia
  GI50: 2.53 µM
  TGI: > 100 µM
OVCAR-8 ovarian
  GI50: 2.54 µM
  TGI: > 24.9 µM
UACC-257 melanoma
  GI50: > 100 µM
  TGI: > 100 µM
NCI-H522 lung
  GI50: 0.241 µM
  TGI: 0.766 µM
TK-10 renal
  GI50: 3.16 µM
  TGI: 8.83 µM
SK-OV-3 ovarian
  GI50: > 83.9 µM
  TGI: > 100 µM
SW-620 colon
  GI50: 0.46 µM
  TGI: 1.75 µM
DU-145 prostate
  GI50: > 23.9 µM
  TGI: > 100 µM
HCT-116 colon
  GI50: 2.04 µM
  TGI: > 100 µM
OVCAR-3 ovarian
  GI50: 1.94 µM
  TGI: 4.53 µM
NCI/ADR-RES ovarian
  GI50: 3.92 µM
  TGI: > 100 µM
CAKI-1 renal
  GI50: > 100 µM
  TGI: > 100 µM
RPMI-8226 leukemia
  GI50: 1.7 µM
  TGI: > 20.6 µM
SF-295 CNS
  GI50: > 90.5 µM
  TGI: > 100 µM
CCRF-CEM leukemia
  GI50: 1.25 µM
  TGI: > 23.4 µM
PC-3 prostate
  GI50: 1.7 µM
  TGI: > 21.3 µM
U251 CNS
  GI50: 2.42 µM
  TGI: > 20.3 µM
T-47D breast
  GI50: 1.48 µM
  TGI: 7.16 µM
IGROV1 ovarian
  GI50: 1.91 µM
  TGI: 5 µM
A549 NSCLC
  GI50: 3.29 µM
  TGI: > 100 µM
ACHN renal
  GI50: 2.79 µM
  TGI: > 100 µM
NCI-H460 lung
  GI50: 4.34 µM
  TGI: > 100 µM
HS 578T breast
  GI50: 2.99 µM
  TGI: > 32.1 µM
SNB-75 CNS
  GI50: 2.33 µM
  TGI: > 32.5 µM
RXF 393 renal
  GI50: 2.6 µM
  TGI: > 25.3 µM
BT-549 breast
  GI50: 1.68 µM
  TGI: 3.27 µM
UACC-62 melanoma
  GI50: 1.36 µM
  TGI: 3.23 µM
NCI-H226 lung
  GI50: > 80.6 µM
  TGI: > 100 µM
SF-539 CNS
  GI50: 3.08 µM
  TGI: > 100 µM
786-0 renal
  GI50: > 20.6 µM
  TGI: > 100 µM
MCF7 breast
  GI50: 2.04 µM
  TGI: > 100 µM
SK-MEL-5 melanoma
  GI50: 2.49 µM
  TGI: > 100 µM
MDA-MB-231 breast
  GI50: 1.25 µM
  TGI: 2.92 µM
NCI-H23 lung
  GI50: 3.15 µM
  TGI: > 100 µM
A498 renal
  GI50: > 100 µM
  TGI: > 100 µM
HT29 colon
  GI50: 10.3 µM
  TGI: 21.9 µM
OVCAR-4 ovarian
  TGI: > 100 µM
SF-268 CNS
  GI50: 2.02 µM
  TGI: 4.72 µM
OVCAR-5 ovarian
  GI50: > 100 µM
  TGI: > 100 µM
